Assay results: the supplement of paper PMC10307832

Legend:
Assay in all cases: relative viability (nuclei count vs DMSO), 5 days (fraction); higher = more cells survive
Axitinib + OSI-027 = compound: CNC(=O)c1ccccc1Sc1ccc2c(/C=C/c3ccccn3)n[nH]c2c1 [Axitinib] + COc1cccc2cc(-c3nc([C@H]4CC[C@H](C(=O)O)CC4)n4ncnc(N)c34)[nH]c12 [OSI-027] (partner 0.5 µM)
Summary of the method: (§1)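 Medians of duplicate plates are given as relative viability. That measure is the nuclei count in treated wells divided by the count in vehicle wells. Counts were taken on 4× images of lung cancer cell lines in 1536-well plates, 5 days after pin-tool dosing the day after seeding with one drug alone or a fixed anchor-drug dose plus five library-drug doses (not always all listed) in √10 steps.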

Axitinib + Olaparib = compound: CNC(=O)c1ccccc1Sc1ccc2c(/C=C/c3ccccn3)n[nH]c2c1 [Axitinib] + O=C(c1cc(Cc2n[nH]c(=O)c3ccccc23)ccc1F)N1CCN(C(=O)C2CC2)CC1 [Olaparib] (partner 8 µM)
Summary of the method: as §1

Bemcentinib + Pictilisib = compound: Nc1nc(Nc2ccc3c(c2)CC[C@@H](N2CCCC2)CC3)nn1-c1cc2c(nn1)-c1ccccc1CCC2 [Bemcentinib] + CS(=O)(=O)N1CCN(Cc2cc3nc(-c4cccc5[nH]ncc45)nc(N4CCOCC4)c3s2)CC1 [Pictilisib] (partner 1 µM)
Summary of the method: as §1

Bemcentinib + Olaparib = compound: Nc1nc(Nc2ccc3c(c2)CC[C@@H](N2CCCC2)CC3)nn1-c1cc2c(nn1)-c1ccccc1CCC2 [Bemcentinib] + O=C(c1cc(Cc2n[nH]c(=O)c3ccccc23)ccc1F)N1CCN(C(=O)C2CC2)CC1 [Olaparib] (partner 8 µM)
Summary of the method: as §1

Cell Line | relative viability (Axitinib + OSI-027; first compound 0.005 µM) | relative viability (Axitinib + OSI-027; first compound 0.01581 µM) | relative viability (Axitinib + OSI-027; first compound 0.05 µM) | relative viability (Axitinib + OSI-027; first compound 0.1581 µM) | relative viability (Axitinib + OSI-027; first compound 0.5 µM) | relative viability (Axitinib + Olaparib; first compound 0.005 µM) | relative viability (Axitinib + Olaparib; first compound 0.01581 µM) | relative viability (Axitinib + Olaparib; first compound 0.05 µM) | relative viability (Axitinib + Olaparib; first compound 0.1581 µM) | relative viability (Axitinib + Olaparib; first compound 0.5 µM) | relative viability (Bemcentinib + Pictilisib; first compound 0.04 µM) | relative viability (Bemcentinib + Pictilisib; first compound 0.1265 µM) | relative viability (Bemcentinib + Pictilisib; first compound 0.4 µM) | relative viability (Bemcentinib + Pictilisib; first compound 1.265 µM) | relative viability (Bemcentinib + Pictilisib; first compound 4 µM) | relative viability (Bemcentinib + Olaparib; first compound 0.04 µM) | relative viability (Bemcentinib + Olaparib; first compound 0.1265 µM) | relative viability (Bemcentinib + Olaparib; first compound 0.4 µM) | relative viability (Bemcentinib + Olaparib; first compound 1.265 µM) | relative viability (Bemcentinib + Olaparib; first compound 4 µM)
HCC-78 | 0.365 | 0.335 | 0.358 | 0.362 | 0.356 | 0.925 | 0.814 | 0.674 | 0.776 | 0.813 | 0.144 | 0.211 | 0.202 | 0.197 | 0.202 | 0.919 | 0.794 | 0.971 | 0.808 | 0.833
A-427 | 0.422 | 0.329 | 0.442 | 0.434 | 0.486 | 0.778 | 0.843 | 0.803 | 0.753 | 1.01 | – | 0.752 | 0.723 | 0.635 | 0.663 | 0.737 | 0.783 | 0.853 | 0.72 | 0.71
HCC-827 | 0.822 | 0.745 | 0.826 | 0.759 | 0.933 | 0.617 | 0.566 | 0.66 | 0.62 | 0.812 | 1.11 | 0.943 | 1.05 | 0.877 | 1.07 | 0.669 | 0.691 | 0.554 | 0.623 | 0.625
ABC-1 | 0.597 | 0.436 | 0.482 | 0.456 | 0.448 | 0.735 | – | 0.659 | 0.974 | 0.78 | 0.688 | 0.736 | 0.731 | 0.77 | 0.955 | 0.627 | 0.843 | 0.855 | 0.774 | 0.792
